From patent US20150190416A1, “FILAGGRIN PRODUCTION PROMOTER, THERAPEUTIC AGENT FOR DISEASES ASSOCIATED WITH REDUCTION IN PRODUCTION OF FILAGGRIN, AND METHOD FOR SCREENING FOR SAID THERAPEUTIC AGENT” (KYOTO UNIVERSITY, priority 2012, published 2015)

Key:
GPR142 mRNA = GPR142 mRNA expression in NHEK cells, real-time PCR (Example 4); type: cell-based, human; details: Compound 1 1 μM, Ca 1.2 mM, 3 days, compared to the control
Experimental: In this example, the expression-inducing effects of Compound 1 on GPR142 mRNA and GPR22 mRNA in NHEK cells were confirmed.
(§1) 1) 5×10^4 cells/well of NHEK cells (Invitrogen) were plated on a 24-well plate. Then, 500 μl of a culture medium containing a medium for proliferating normal human epidermal keratinocytes (HuMedia-KG2, KURABO INDUSTRIES LTD.) supplemented with hEGF (0.1 ng/ml), insulin (10 μg/ml), hydrocortisone (0.5 μg/ml), gentamycin (50 μg/ml), amphotericin B (50 ng/ml), and bovine brain pituitary extract (BPE) (0.4%, v/v) were added to the plate, and the cells were cultured under the conditions of 37° C. and 5% CO2.
2) After culture under the conditions of the step 1) for 1 day, the medium was exchanged for the culture medium of the step 1) to which a DMSO solution of Compound 1 was added at 1 μM per well every day and the culture was conducted for 3 days. […]
3) An extraction reagent (TRIzol™, Invitrogen) was used, and according to the manufacturer's protocol, total RNA was extracted from each of cells treated with the medicament. […] Next, real-time PCR was conducted by using the following primers and SYBR™ Premix Ex Taq (Takara) with a CFX96 real-time PCR instrument according to the manufacturer's protocol, and the amounts of GPR142mRNA and GPR22mRNA expression were measured. […]

GPR22 = assay: G protein-coupled receptor (GPCR) array in NHEK cells, GPR22 (Example 3); type: cell-based, human; details: Compound 1 1 μM, 3 days
Experimental: In this example, the expression-increasing effect of Compound 1 on a GPCR in NHEK cells was confirmed by using a GPCR array.
as §1, with “plate, and then” for “plate. Then,”, “CO2 for from 3 to 4 days until the 80 to 85% confluent state was achieved.” for “CO2.”
2) Next, a DMSO solution of Compound 1 was added to the medium at 1 μM per well, and culture was further conducted for 3 days without changing the medium. In addition, regarding the system to which only CaCl2 (1.5 mM in terms of Ca) as Ca was added and the system to which both Compound 1 and CaCl2 (1.5 mM in terms of Ca) as Ca were added, the culture was conducted in a similar manner for 3 days. As a control example, a solvent only (vehicle) was added.
3) An extraction reagent (TRIzol™, Invitrogen) was used, and according to the manufacturer's protocol, total RNA was extracted from each of cells treated in the step 2). […]

FLG monomer = assay: FLG monomer-producing effect in atopic dermatitis mouse model (NC/Nga), Western blotting (Example 15); type: in vivo; details: oral 0.75 mg every other day, 2 weeks, ear epidermis
Experimental: Experiments were conducted with raising 6- to 10-week-old atopic dermatitis-developing NC/Nga mice with mites (Japan SLC, Inc.) under a normal environment. Namely, 500 μl of a solution obtained by dissolving Compound 1 at 1.5 mg/ml in a methyl cellulose solution (0.5 W/V % Methyl Cellulose 400 Solution, Wako, 133-14255) were orally administered to an NC/Nga mouse developing dermatitis majorly in the ear auricles and the head (0.75 mg of Compound 1 was administered to the mouse per time) every other day. As a control, 500 μl of the methyl cellulose solution was orally administered every other day. The experiments were conducted by using five mice in each of a Compound 1-administered group and a control group.
2 weeks after the beginning of administration, ears of each mouse were cut under anesthesia, the skin of the cut ear was peeled off by pinching cartilage, and the skin on the dermal side was soaked in PBS containing 20 mM EDTA at 37° C. for 30 minutes. Next, the epidermis of the ear was peeled off and […] of Lysis buffer (0.1 M Tris-HCl (pH 9.0), 6 M Urea, 1% 2-mercapto-ethanol, 1% SDS, 1 mM EDTA, and Protease inhibitor cocktail) were added to the epidermis. The epidermis was homogenized with an electrically powered pestle, and the homogenized cells were centrifuged at 15,000 rpm at 4° C. for 20 minutes. […]

## CCc1ccc(OCc2ccccc2C(=O)Nc2ccc3nc(C)cc(N)c3c2)cc1.Cl [Compound 1, N-(4-Amino-2-methyl-6-quinolyl)-2-[(4-ethylphenoxy)methyl]benzamide hydrochloride]
GPR142 mRNA
  GPR142 mRNA expression (GAPDH ratio): GPR142 mRNA expression was induced
GPR22; Ca 1.5 mM
  GPR22 mRNA expression (GPCR array), in words: expression was induced
GPR22; CaCl2 1.5 mM in terms of Ca, control 29.2
  GPR22: cycle number (ΔCt value) to 18S ribosomal RNA: 6.7
FLG monomer
  production of FLG monomer (relative to GAPDH): clearly promoted the production of FLG monomer
